The source of these data is patent US10494397B2, “Rebaudioside analogs” (PepsiCo, Inc., priority 2016, dated 2019).

For experiment [1], the system named is Tasters. Description: Sensory evaluation of test material as a sweetener (taster panel, scale of 1 to 10). Type of experiment: in vivo, human. The conditions noted are these: for Sweet Intensity: averaged taster scores, scale 1 to 10 with Reb A 400 ppm = 5 and sucrose 6.5% = 10, noseclips, blinded; for Sweet Quality: based upon temporal profile (sweet onset, linger) and attributes such as syrupy, round, clean; for Bitterness: taster comments and scores converted into symbols. Details: key: not observed or only minimally observed (−); highly observed (+++). The text has this:
Sample preparation protocol for testing material as a sweetener: Tasters wore noseclips and were blinded to the identity of the test material. Tasters sampled 400 ppm Rebaudioside A and 6.5 Brix sucrose prior to the test material. Reb A 400 ppm was assigned a 5 on the scale of 1 to 10 as shown in FIG. 8 and sucrose (6.5%) was assigned a 10 on the same scale. Tasters were asked to rinse their mouths 5 times with water between tasting each sample. Tasters were then given the test article and asked to rank the test article for sweetness on the noted scale. Tasters were also asked to provide comments about bitterness, linger, flavors, and any other perceptions.
Numerical scores from all tasters were averaged and, taken together with comments regarding sweet quality, bitterness and off-tastes, converted into the symbols “−,” “+,” “++,” and “+++” to indicate whether a given characteristic was not observed or only minimally observed (−) or highly observed (+++). For example, a sample having a “−” in both sweet intensity and bitterness should be understood as a sample having minimal or no sweetness and minimal or no bitter flavor. By contrast, a sample having a “+++” in both sweet intensity and bitterness should be understood as a sample having highly observed sweet intensity and bitterness.
Preparation of Reb A in this experiment: Prepare 400 ppm Reb A in water (pH=7): 40 mg of Rebaudioside A was dissolved with stirring in 100 ml of water at room temperature.
Preparation of Sucrose in this experiment: Prepare 6.5% Sucrose in water (pH=7): weight 6.5 gr of Sucrose and dissolve it in 93.5 gr water (total 100 gr)
• Sweet quality was based upon a temporal profile (sweet onset, linger) and attributes such as syrupy, round, clean.

Experiment [2] deals with Tasters. Nature of the experiment: Sweetness enhancement, Forced Choice Test. It is filed as in vivo, human. Details: key: not observed or only minimally observed (−); highly observed (+++). The conditions noted are these: sweetener (4 Brix sucrose, 4 Brix HFCS or 200 ppm Rebaudioside A) with vs without test compound at a level below 1.5% SEV. Here is the method: Sample preparation protocol: For testing the material as a sweet/flavor modifying ingredient, two samples were prepared: a 4° Brix high-fructose corn syrup (HFCS) control solution and a 4° Brix HFCS solution with a known concentration of test ingredient.
Sample Preparation: 4° Brix HFCS control solution was prepared by adding 50.89 grams of 78.60° Brix HFCS to 1000 g phosphoric acid base which was prepared by adding phosphoric acid dropwise into 1 L of Aquafina Water until pH 3.1 was obtained. pH was measured using a METTLER TOLEDO pH meter.
In the case of a different Brix of HFCS starting syrup, the following formula can be used for the amount of HFCS required to make HFCS control solution. 4° Brix/100*1000 mL/(78.5° Brix/100)=50.96
If any cloudiness persisted, the sample solution was passed through a paper filter. For some low soluble compounds, Branson 2800 Ultra Sonic Bath was used to dissolve the material. If any cloudiness persisted, the sample solution was passed through a paper filter. Solubility was confirmed by shining a laser pointer through the solution. If no diffraction was observed then it was assumed that the material was soluble
12-16 tasters were presented with these two(2) numbered samples: one contained a sweetener such as 4Brix sucrose, 4 Brix high-fructose corn syrup or 200 ppm Rebaudioside A in phosphate buffer. […]

With `C=C1C[C@@]23CC[C@H]4[C@@](C)(CCC[C@@]4(C)C(=O)NCC(=O)OC)[C@@H]2CC[C@]1(O[C@@H]1O[C@H](CO)[C@@H](O)[C@H](O[C@@H]2O[C@H](CO)[C@@H](O)[C@H](O)[C@H]2O)[C@H]1O[C@@H]1O[C@H](CO)[C@@H](O)[C@H](O)[C@H]1O)C3` [Compound 5A1, Rebaudioside B—Glycine Methyl ester], in the experiment with Tasters [1], the “Sweet Intensity” value was “−”, the “Sweet Quality” value is listed as “−” and the Bitterness entry was “+++”.

With `C=C1C[C@@]23CC[C@H]4[C@@](C)(CCC[C@@]4(C)C(=O)NCC(=O)O)[C@@H]2CC[C@]1(O[C@@H]1O[C@H](CO)[C@@H](O)[C@H](O[C@@H]2O[C@H](CO)[C@@H](O)[C@H](O)[C@H]2O)[C@H]1O[C@@H]1O[C@H](CO)[C@@H](O)[C@H](O)[C@H]1O)C3` [Compound 5A2, Rebaudioside B-Glycine], the “Sweet Intensity” value in the experiment with Tasters [1] was “+++”. In addition, in the experiment on Tasters [2], the Enhancement result is “+++”.

As for `C=C1C[C@@]23CC[C@H]4[C@@](C)(CCC[C@@]4(C)C(=O)N[C@@H](C)C(=O)OC)[C@@H]2CC[C@]1(O[C@@H]1O[C@H](CO)[C@@H](O)[C@H](O[C@@H]2O[C@H](CO)[C@@H](O)[C@H](O)[C@H]2O)[C@H]1O[C@@H]1O[C@H](CO)[C@@H](O)[C@H](O)[C@H]1O)C3` [Compound 5B1, Rebaudioside B- L-Alanine Methyl ester], in the experiment on Tasters [1], the “Sweet Quality” value is on record as “−” and the Bitterness result is given as “+++”.

Regarding `C=C1C[C@@]23CC[C@H]4[C@@](C)(CCC[C@@]4(C)C(=O)N[C@H](C)C(=O)OC)[C@@H]2CC[C@]1(O[C@@H]1O[C@H](CO)[C@@H](O)[C@H](O[C@@H]2O[C@H](CO)[C@@H](O)[C@H](O)[C@H]2O)[C@H]1O[C@@H]1O[C@H](CO)[C@@H](O)[C@H](O)[C@H]1O)C3` [Compound 5C1, Rebaudioside B- D-Alanine Methyl ester], in the experiment on Tasters [1], the “Sweet Quality” value is recorded as “−”.

As to `C=C1C[C@@]23CC[C@H]4[C@@](C)(CCC[C@@]4(C)C(=O)N[C@@H](C(=O)OC)C(C)C)[C@@H]2CC[C@]1(O[C@@H]1O[C@H](CO)[C@@H](O)[C@H](O[C@@H]2O[C@H](CO)[C@@H](O)[C@H](O)[C@H]2O)[C@H]1O[C@@H]1O[C@H](CO)[C@@H](O)[C@H](O)[C@H]1O)C3` [Compound 5D1, Rebaudioside B- D-Valine Methyl ester], in the experiment with Tasters [1], the “Sweet Intensity” value was “−”, the “Sweet Quality” value was “−” and the Bitterness result is listed as “+++”.

For the compound `C=C1C[C@@]23CC[C@H]4[C@@](C)(CCC[C@@]4(C)C(=O)N[C@@H](C(=O)O)C(C)C)[C@@H]2CC[C@]1(O[C@@H]1O[C@H](CO)[C@@H](O)[C@H](O[C@@H]2O[C@H](CO)[C@@H](O)[C@H](O)[C@H]2O)[C@H]1O[C@@H]1O[C@H](CO)[C@@H](O)[C@H](O)[C@H]1O)C3` [Compound 5D2], in the experiment with Tasters [1], the “Sweet Intensity” value was “+++” and the Bitterness result is given as “−”.

As for `C=C1C[C@@]23CC[C@H]4[C@@](C)(CCC[C@@]4(C)C(=O)N[C@H](Cc4ccccc4)C(=O)OC)[C@@H]2CC[C@]1(O[C@@H]1O[C@H](CO)[C@@H](O)[C@H](O[C@@H]2O[C@H](CO)[C@@H](O)[C@H](O)[C@H]2O)[C@H]1O[C@@H]1O[C@H](CO)[C@@H](O)[C@H](O)[C@H]1O)C3` [Compound 5E1, Rebaudioside B- D-Phenylalanine Methyl ester], in the experiment on Tasters [1], the “Sweet Intensity” value is reported as “−”, the “Sweet Quality” value is “−” and the Bitterness result was “+++”.

As for `C=C1C[C@@]23CC[C@H]4[C@@](C)(CCC[C@@]4(C)C(=O)N[C@H](Cc4ccccc4)C(=O)O)[C@@H]2CC[C@]1(O[C@@H]1O[C@H](CO)[C@@H](O)[C@H](O[C@@H]2O[C@H](CO)[C@@H](O)[C@H](O)[C@H]2O)[C@H]1O[C@@H]1O[C@H](CO)[C@@H](O)[C@H](O)[C@H]1O)C3` [Compound 5E2], the Bitterness result in the experiment on Tasters [1] was “−”.

For `C=C1C[C@@]23CC[C@H]4[C@@](C)(CCC[C@@]4(C)C(=O)O[C@@H]4O[C@H](CO)[C@@H](O)[C@H](O)[C@@H]4O)[C@@H]2CC[C@]1(O[C@@H]1O[C@H](CO)[C@@H](O)[C@H](O[C@@H]2O[C@H](CO)[C@@H](O)[C@H](O)[C@H]2O)[C@H]1O[C@@H]1O[C@H](CO)[C@@H](O)[C@H](O)[C@H]1O)C3` [Compound 7A, Rebaudioside B Mannoside], the “Sweet Intensity” value in the experiment on Tasters [1] is “+++”.

As for `C=C1C[C@@]23CC[C@H]4[C@@](C)(CCC[C@@]4(C)C(=O)O[C@@H]4OC[C@@H](O)[C@H](O)[C@H]4O)[C@@H]2CC[C@]1(O[C@@H]1O[C@H](CO)[C@@H](O)[C@H](O[C@@H]2O[C@H](CO)[C@@H](O)[C@H](O)[C@H]2O)[C@H]1O[C@@H]1O[C@H](CO)[C@@H](O)[C@H](O)[C@H]1O)C3` [Compound 7C, Rebaudioside B Xyloside], the “Sweet Intensity” value in the experiment on Tasters [1] is reported as “+++”.

As to `C=C1C[C@@]23CC[C@H]4[C@@](C)(CCC[C@@]4(C)C(=O)O[C@@H]4OC[C@@H](O)[C@H](O)[C@H]4O)[C@@H]2CC[C@]1(O[C@@H]1O[C@H](CO)[C@@H](O)[C@H](O[C@@H]2O[C@H](CO)[C@@H](O)[C@H](O)[C@H]2O)[C@H]1O[C@@H]1O[C@@H](C)[C@H](O)[C@@H](O)[C@H]1O)C3` [Compound 7E, Rebaudioside C Xyloside], in the experiment on Tasters [1], the “Sweet Intensity” value is given as “−”, the “Sweet Quality” value was “−” and the Bitterness entry is given as “−”.

Consider `C=C1C[C@@]23CC[C@H]4[C@@](C)(CCC[C@@]4(C)C(=O)O[C@@H]4O[C@H](CO)[C@H](O)[C@H](O)[C@H]4O)[C@@H]2CC[C@]1(O[C@@H]1O[C@H](CO)[C@@H](O)[C@H](O[C@@H]2O[C@H](CO)[C@@H](O)[C@H](O)[C@H]2O)[C@H]1O[C@@H]1O[C@@H](C)[C@H](O)[C@@H](O)[C@H]1O)C3` [Compound 7F, Rebaudioside C Galactoside], for which, in the experiment on Tasters [1], the “Sweet Intensity” value was “−”, the “Sweet Quality” value is listed as “−” and the Bitterness entry is given as “−”.

Turning to `C=C1C[C@@]23CC[C@H]4[C@@](C)(CCC[C@@]4(C)C(=O)O[C@@H]4O[C@H](CO)[C@@H](O)[C@H](O)[C@H]4O[C@@H]4O[C@H](CO)[C@@H](O)[C@H](O)[C@H]4O)[C@@H]2CC[C@]1(O[C@@H]1O[C@H](CO)[C@@H](O)[C@H](O[C@@H]2O[C@H](CO)[C@@H](O)[C@H](O)[C@H]2O)[C@H]1O[C@@H]1O[C@@H](C)[C@H](O)[C@@H](O)[C@H]1O)C3` [Compound 7G, Rebaudioside K], in the experiment on Tasters [1], the “Sweet Intensity” value was “−”, the “Sweet Quality” value is recorded as “−” and the Bitterness entry is “−”. Besides, the Enhancement entry in the experiment on Tasters [2] is given as “−”.

As for `C=C1C[C@@]23CC[C@H]4[C@@](C)(CCC[C@@]4(C)C(=O)O[C@@H]4O[C@H](CO)[C@@H](O)[C@H](O)[C@H]4O)[C@@H]2CC[C@]1(O[C@@H]1O[C@H](CO)[C@@H](O)[C@H](O[C@@H]2O[C@H](CO)[C@@H](O)[C@H](O)[C@H]2O)[C@H]1O[C@@H]1O[C@H](CO)[C@@H](O)[C@H](O)[C@H]1O)C3` [Rebaudioside A], the “Sweet Intensity” value in the experiment with Tasters [1] was “+++”.

As for `OC[C@H]1O[C@@](CO)(O[C@H]2O[C@H](CO)[C@@H](O)[C@H](O)[C@H]2O)[C@@H](O)[C@@H]1O` [Sucrose, reference compound], in the experiment on Tasters [1], the “Sweet Quality” value is on record as “+++” and the Bitterness result is listed as “−”.
